What was measured:
Assay type in all cases: biochemical
[1] = target: T1, recombinant alpha-glucosidase I (human full-length glucosidase I, Glu 1) (Homo sapiens, UniProt Q13724); assay: Alpha-glucosidase I assay (Amplex Red glucose detection, synthetic trisaccharide substrate); conditions: Glucosidase 1; read-out: Glu 1 IC50
T1 construct: 6-His (C); made in house; host or cells: HEK-293T cells transduced with BacMam virus (virus raised in Sf9)
T1 sequence (Q13724 1-837): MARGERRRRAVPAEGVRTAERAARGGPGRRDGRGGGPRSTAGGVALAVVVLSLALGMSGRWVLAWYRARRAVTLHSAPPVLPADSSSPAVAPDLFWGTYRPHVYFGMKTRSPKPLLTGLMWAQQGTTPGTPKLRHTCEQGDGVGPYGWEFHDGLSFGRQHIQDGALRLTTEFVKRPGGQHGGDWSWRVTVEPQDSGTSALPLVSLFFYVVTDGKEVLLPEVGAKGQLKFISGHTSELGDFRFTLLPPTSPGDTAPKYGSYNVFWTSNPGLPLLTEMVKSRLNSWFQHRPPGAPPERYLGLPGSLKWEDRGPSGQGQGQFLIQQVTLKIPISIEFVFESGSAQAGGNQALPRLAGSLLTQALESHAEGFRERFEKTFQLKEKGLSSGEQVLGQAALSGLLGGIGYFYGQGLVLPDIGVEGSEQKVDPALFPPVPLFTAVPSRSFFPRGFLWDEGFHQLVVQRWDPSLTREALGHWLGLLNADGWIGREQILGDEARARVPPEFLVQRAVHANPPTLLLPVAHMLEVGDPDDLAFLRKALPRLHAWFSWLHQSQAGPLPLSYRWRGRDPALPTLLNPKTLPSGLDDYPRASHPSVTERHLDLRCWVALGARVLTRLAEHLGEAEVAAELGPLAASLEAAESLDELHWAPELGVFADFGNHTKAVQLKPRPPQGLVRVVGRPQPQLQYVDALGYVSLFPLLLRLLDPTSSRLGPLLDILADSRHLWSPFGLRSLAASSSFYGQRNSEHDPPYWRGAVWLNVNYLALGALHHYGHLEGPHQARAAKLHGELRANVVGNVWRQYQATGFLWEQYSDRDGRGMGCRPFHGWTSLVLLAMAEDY
Source text: Preparation of Human Full-length Glucosidase I: The amino acid sequence for human full-length glucosidase I was obtained from UniProt (Q13724). […] The entry vector was cloned into Kemp Proteins' BacMam Destination vector and transformed into chemically competent DH10Bac E. coli cells to produce recombinant glucosidase I bacmids. Bacmid isolates were obtained following two rounds of blue-white screening and they were transfected into Sf9 cells cultivated in serum-free medium (Thermo Fisher Scientific). Four days post-transfection the culture supernatants containing virus were harvested and filter sterilized. […] A multiplicity of infection (MOI, ratio of virus to cells) of 4 was selected. Soluble glucosidase I was detected by anti-His western blots in the soluble cell extract following extraction with 1% V/V NP40 for 30 minutes at 0° C. Productions and purifications of glucosidase I were carried out at scales ranging from 1-liter to 10-liters. […] In another example production at the 10-liter scale was performed in stirred-tank bioreactors at 27° C. and 80 rpm with dissolved oxygen level at 50% of oxygen in air and pH between 7.0 and 7.2. Cells were transduced at MOI of 4 and the cell pellet was harvested at 48 hours post-transduction using centrifugation.
The pellet from a 10-liter culture was lysed by resuspending the pellet into 1-liter of 50 mM NaH2PO4—H2O+300 mM NaCl+10 mM Imidazole+1 mM PMSF+1% V/V NP40 pH 8. The suspension was incubated on ice for 30 minutes and clarified at 500×g and 4° C. The supernatant was collected and clarified at 20,000×g for 30 minutes at 4° C. and the supernatant was collected and filtered through a 0.2 micron filter. […] The column was washed with 20 column volumes (CV) of 50 mM NaH2PO4-H2O+300 mM NaCl+10 mM Imidazole pH 8 and eluted using a linear gradient of 0-60% 50 mM NaH2PO4-H2O+300 mM NaCl+500 mM Imidazole pH 8 over 90 minutes. at 5 mL per minute. Fractions (25 mL) were collected and analyzed by SDS PAGE and Western Blot (reducing anti-His). Fractions containing purified glucosidase I were pooled and dialyzed into storage buffer (20 mM Tris+300 mM NaCl+50 mM L-arginine+10 mM EDTA+0.01% V/V Tween 80 pH 7.5). The final material was filter sterilized and stored at 4° C. and the working dilution confirmed by a use-test in the indicated assay conditions prior to use.
Alpha-glucosidase I Assay: The assay was performed by incubating recombinant alpha-glucosidase I enzyme with multiple dilutions of test compounds for 60 minutes at 37° C. A synthetic trisaccharide substrate analog was then introduced to the mixture for 90 minutes at 37° C. The reaction was then stopped with 1.5M Tris (pH 8). In the absence of inhibition, the terminal glucose of the substrate was hydrolyzed by the enzyme. The D-glucose product was detected using Amplex Red Glucose/Glucose Oxidase Assay Kit (Invitrogen) following the manufacturer's directions where glucose oxidase reacts with D-glucose to form D-gluconolactone and H2O2 which then reacts with the Amplex Red reagent to generate a red-fluorescent oxidation product (560 nm, excitation; 590 nm, emission). […] Percent inhibition is plotted as a function of concentration for each compound, compared to control reactions. The IC50 was determined using a 4-PL curve fit and serves as a measure of relative inhibitory activity of each test compound (see Table 3).

[2] = target: T2, recombinant alpha-glucosidase II (murine full-length glucosidase II, alpha and beta subunits, Glu 2) (Mus musculus, UniProt Q8BHN3); assay: Alpha-glucosidase II assay (4-methylumbelliferyl-alpha-D-pyranoside substrate, fluorescence); conditions: Glucosidase 2; read-out: Glu2 IC50
T2 construct: made in house; host or cells: HEK-293T cells transduced with BacMam viruses (75% alpha, 25% beta); protein harvested from culture supernatant

[3] = target: recombinant human GAA (acid alpha-glucosidase) (Homo sapiens, UniProt P10253); assay: Acid alpha-glucosidase (GAA) assay (4-methylumbelliferyl-alpha-D-pyranoside substrate, fluorescence)
Experimental: Acid alpha-glucosidase (GAA): To analyze inhibitory effects of a test compound, commercially available recombinant human GAA was incubated with multiple dilutions of test compound for 60 minutes at 37° C. 4-methylumbelliferyl-alpha-D-pyranoside was then introduced to the mixture as the substrate. 1,4-methyllumbelliferone is generated, and after an incubation for 20 minutes at 37° C., the reaction was stopped with the stop solution (0.5M glycine 0.3M NaOH pH 10). 1,4-methyllumbelliferone is detected by fluorescence (excitation at 365 nm, emission at 440 nm). Relative fluorescence compared to untreated enzymatic activity and test compound concentration is plotted as a function of percent inhibition. The IC50 is determined using a 4-PL curve fit as the measure of relative inhibitory activity of each test compound (see Table 3).

[4] = target: rat maltase (partially purified alpha-glucosidase from intestinal rat powder); assay: Intestinal alpha-glucosidase assay, maltose substrate (Glucose GO Kit)
Experimental: (§1) Intestinal alpha-glucosidases (rat maltase and sucrase): Intestinal alpha-glucosidases act upon 1,4-alpha-glucoside bonds, breaking down disaccharides to glucose. To perform this assay, partially purified alpha-glucosidase from intestinal rat powder was incubated for 60 minutes at 37° C. with multiple dilutions of test compounds. Maltose or Sucrose respectively was then introduced as substrate to the mixture and incubated for 30 minutes at 37° C. The reaction was stopped by a 5-minute incubation at 90° C. and the resultant glucose production is detected using Sigma's Glucose GO Kit. Percent inhibition was then plotted as a function of concentration for each test compound. The IC50 was determined using a 4-PL curve fit and serves as the measure of relative inhibition of each test compound (see Table 3).

[5] = target: rat sucrase (partially purified alpha-glucosidase from intestinal rat powder) (Rattus norvegicus, UniProt P23739); assay: Intestinal alpha-glucosidase assay, sucrose substrate (Glucose GO Kit)
Experimental: as §1

T2 sequence (O08795 15-521): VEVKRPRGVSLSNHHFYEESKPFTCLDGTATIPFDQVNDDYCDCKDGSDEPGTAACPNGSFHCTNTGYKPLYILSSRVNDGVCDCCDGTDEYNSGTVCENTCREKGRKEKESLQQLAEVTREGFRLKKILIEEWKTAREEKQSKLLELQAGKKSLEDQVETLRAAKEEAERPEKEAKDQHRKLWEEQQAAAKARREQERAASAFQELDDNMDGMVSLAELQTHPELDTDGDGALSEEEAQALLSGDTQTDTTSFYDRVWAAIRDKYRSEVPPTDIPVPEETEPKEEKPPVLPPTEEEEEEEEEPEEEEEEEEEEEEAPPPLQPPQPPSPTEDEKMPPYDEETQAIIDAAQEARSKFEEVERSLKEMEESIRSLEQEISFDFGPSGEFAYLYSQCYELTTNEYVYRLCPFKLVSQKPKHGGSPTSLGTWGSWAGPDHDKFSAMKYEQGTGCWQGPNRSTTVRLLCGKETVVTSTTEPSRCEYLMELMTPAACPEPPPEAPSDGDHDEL
T2 sequence (Q8BHN3 33-944): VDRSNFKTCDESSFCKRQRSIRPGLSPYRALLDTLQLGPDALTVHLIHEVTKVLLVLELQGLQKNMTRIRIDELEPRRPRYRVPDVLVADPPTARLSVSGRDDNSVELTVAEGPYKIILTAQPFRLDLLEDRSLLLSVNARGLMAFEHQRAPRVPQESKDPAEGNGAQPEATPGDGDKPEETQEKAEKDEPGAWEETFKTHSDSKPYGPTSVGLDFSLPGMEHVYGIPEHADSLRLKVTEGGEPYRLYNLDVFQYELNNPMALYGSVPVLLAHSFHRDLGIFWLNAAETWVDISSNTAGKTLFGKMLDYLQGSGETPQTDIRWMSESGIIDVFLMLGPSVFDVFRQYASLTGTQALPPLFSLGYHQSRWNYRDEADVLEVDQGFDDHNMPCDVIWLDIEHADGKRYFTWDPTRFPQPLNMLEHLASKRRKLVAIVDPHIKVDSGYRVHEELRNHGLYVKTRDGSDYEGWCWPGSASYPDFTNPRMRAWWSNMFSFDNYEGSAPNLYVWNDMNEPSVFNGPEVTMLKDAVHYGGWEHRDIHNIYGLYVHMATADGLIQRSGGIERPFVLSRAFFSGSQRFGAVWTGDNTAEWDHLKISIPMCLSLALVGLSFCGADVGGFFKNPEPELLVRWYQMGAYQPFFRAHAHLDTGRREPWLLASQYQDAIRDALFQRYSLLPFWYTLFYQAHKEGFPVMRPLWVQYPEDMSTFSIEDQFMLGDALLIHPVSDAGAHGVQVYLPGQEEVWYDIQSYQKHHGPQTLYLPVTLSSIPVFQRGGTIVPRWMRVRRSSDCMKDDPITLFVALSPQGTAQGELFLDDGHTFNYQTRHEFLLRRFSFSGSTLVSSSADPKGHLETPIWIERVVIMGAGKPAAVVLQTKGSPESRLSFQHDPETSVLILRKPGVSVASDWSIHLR
rat sucrase (partially purified alpha-glucosidase from intestinal rat powder), sequence (P23739 whole entry): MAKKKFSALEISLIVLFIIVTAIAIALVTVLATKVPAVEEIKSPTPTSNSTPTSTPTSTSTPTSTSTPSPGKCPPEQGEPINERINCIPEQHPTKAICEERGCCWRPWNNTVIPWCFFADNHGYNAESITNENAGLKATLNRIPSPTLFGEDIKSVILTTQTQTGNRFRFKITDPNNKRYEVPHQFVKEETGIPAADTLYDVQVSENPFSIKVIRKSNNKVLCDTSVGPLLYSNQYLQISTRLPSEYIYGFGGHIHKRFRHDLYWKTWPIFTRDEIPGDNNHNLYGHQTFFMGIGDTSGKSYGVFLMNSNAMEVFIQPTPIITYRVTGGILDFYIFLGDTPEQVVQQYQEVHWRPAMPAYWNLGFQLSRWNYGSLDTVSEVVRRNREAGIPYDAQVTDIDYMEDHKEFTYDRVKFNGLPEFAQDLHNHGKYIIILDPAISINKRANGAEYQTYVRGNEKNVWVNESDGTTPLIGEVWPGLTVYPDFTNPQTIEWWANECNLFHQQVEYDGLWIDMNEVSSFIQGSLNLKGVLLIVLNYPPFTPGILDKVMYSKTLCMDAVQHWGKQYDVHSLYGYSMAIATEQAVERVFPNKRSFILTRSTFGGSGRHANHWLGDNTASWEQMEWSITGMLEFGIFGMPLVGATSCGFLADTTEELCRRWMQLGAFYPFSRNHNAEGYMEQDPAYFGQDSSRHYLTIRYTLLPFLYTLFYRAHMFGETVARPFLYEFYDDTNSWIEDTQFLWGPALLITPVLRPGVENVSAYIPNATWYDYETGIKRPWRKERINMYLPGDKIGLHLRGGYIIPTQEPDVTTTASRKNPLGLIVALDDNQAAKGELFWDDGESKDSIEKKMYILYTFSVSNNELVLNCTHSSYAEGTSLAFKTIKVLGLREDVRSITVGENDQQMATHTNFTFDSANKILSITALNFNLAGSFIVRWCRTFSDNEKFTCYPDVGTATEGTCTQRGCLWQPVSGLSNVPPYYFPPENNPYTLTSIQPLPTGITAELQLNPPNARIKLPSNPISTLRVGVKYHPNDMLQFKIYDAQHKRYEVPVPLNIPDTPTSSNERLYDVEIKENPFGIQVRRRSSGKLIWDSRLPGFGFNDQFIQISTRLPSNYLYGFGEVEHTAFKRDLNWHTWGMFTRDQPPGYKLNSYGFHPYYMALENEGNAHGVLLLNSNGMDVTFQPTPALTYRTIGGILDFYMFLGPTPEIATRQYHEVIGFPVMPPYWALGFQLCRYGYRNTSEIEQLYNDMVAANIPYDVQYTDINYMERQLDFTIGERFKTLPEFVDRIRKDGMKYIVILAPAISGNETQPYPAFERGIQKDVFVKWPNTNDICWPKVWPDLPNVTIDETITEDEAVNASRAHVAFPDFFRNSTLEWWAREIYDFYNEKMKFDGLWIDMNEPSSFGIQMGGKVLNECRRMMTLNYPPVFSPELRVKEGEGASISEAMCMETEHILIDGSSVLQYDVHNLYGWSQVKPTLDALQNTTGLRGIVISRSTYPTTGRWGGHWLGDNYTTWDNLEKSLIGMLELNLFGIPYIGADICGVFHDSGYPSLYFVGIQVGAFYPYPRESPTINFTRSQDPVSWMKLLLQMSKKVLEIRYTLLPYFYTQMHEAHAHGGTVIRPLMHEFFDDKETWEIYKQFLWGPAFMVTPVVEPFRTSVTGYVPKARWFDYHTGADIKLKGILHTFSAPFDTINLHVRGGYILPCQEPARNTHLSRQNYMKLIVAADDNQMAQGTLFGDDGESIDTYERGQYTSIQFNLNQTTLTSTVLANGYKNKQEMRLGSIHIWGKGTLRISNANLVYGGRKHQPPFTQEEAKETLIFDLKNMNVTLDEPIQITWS

SMILES	IC50 [1] [nM]	IC50 [2] [nM]	IC50 [3] [nM]	IC50 [4] [nM]	IC50 [5] [nM]
OC[C@@H]1[C@@H](O)[C@H](O)[C@@H](O)CN1Cc1ccc(CNc2ccc(-c3cccnn3)cc2)cc1 [Compound 1095, (2R,3R,4R,5S)-2-(hydroxymethyl)-1-{[4-({[4-(pyridazin-3-yl)phenyl]amino}methyl)phenyl]methyl}piperidine-3,4,5-triol]	12	657	243	11	13
[N-]=[N+]=Nc1ccc(NCC2COC(CN3C[C@H](O)[C@@H](O)[C@H](O)[C@H]3CO)CO2)c([N+](=O)[O-])c1 (stereo partly drawn) [Compound 1280, (2R,3R,4R,5S)-1-[(5-{[(4-azido-2-nitrophenyl)amino]methyl}-1,4-dioxan-2-yl)methyl]-2-(hydroxymethyl)piperidine-3,4,5-triol]	1460	194			
O=[N+]([O-])c1cc(CN2CCCO2)ccc1NCc1ccc(CN2C[C@H](O)[C@@H](O)[C@H](O)[C@H]2CO)cc1 [Compound 1098]	23	83	175	13	40

From patent publication US20250197372A1 (priority 2020, published 2025)
